Structures are written as SMILES.

The text below walks through data of EP0182152B1, “Antitumor antibiotics (LL-E33288 Complex)” (AMERICAN CYANAMID COMPANY, priority 1984, dated 1986).

The test system of experiment [1] is M5076 reticular cell Sarcoma. The experiment can be described thus: M5076 Sarcoma test. Format: in vivo, BDF1 mice. To be noted: Table VIII, i.p. days 1, 5, 9, 13 and 17, control 28.5 days. Here is the method:
The M5076 reticular cell Sarcoma is propagated as subcutaneous implants in C57B2/6 female mice. In the assays for antitumor activity, BDF1 mice of either sex were inoculated intraperitoneally with 0.5 ml of a 10% tumor brei. LL-E33288 antibiotics were tested in the M5076 system as a complex (Bromo-complex) of all components. Test compounds were administered intraperitoneally on days 1, 5, 9, 13 and 17 relative to tumor inoculation on day zero. The median survival time in days was determined for each drug dose used on day 60 and the ratio of survival time for treated (T)/control (C) animals were calculated. The results of this test appear in Table VIII compared to the results obtained with Cisplatin. If T/C X 100 (%) is 125 or over, the tested compound is considered to have significant anti-tumor activity.

The test system of the next experiment is Acinetobacter sp. The experiment can be described thus: in vitro antibacterial activity, agar dilution MIC. The format is cell-based. On the procedure: (§1) The in vitro antibacterial activity of LL-E33288 components was determined against a spectrum of gram-positive and gram-negative bacteria by a standard agar dilution method. Mueller-Hinton again containing two-fold decreasing concentrations of the antibiotics were poured into petri plates. the agar surfaces were inoculated with 1 to 5 x 10^4 colong forming units of bacteria by means of the steers replicating device.

For a further experiment, the system named is Citrobacter freundii. The experiment can be described thus: in vitro antibacterial activity, agar dilution MIC. The format is cell-based. The conditions noted are these: Citrobacter freundii IO 83-13. On the procedure:
as §1

In another experiment the test system is Escherichia coli. Kind of experiment: in vitro antibacterial activity, agar dilution MIC. Format: cell-based. Here is the method: as §1
A further experiment relates to Enterobacter aerogenes. Kind of experiment: in vitro antibacterial activity, agar dilution MIC. The format is cell-based. To be noted: Enterobacter aerogenes IO 83-44. On the procedure:
as §1

Another experiment relates to Providencia stuartii. Kind of experiment: in vitro antibacterial activity, agar dilution MIC. Format: cell-based. To be noted: Providencia stuartii CMC 83-82. Here is the method:
as §1

The test system of a further experiment is Citrobacter diversus. The experiment can be described thus: in vitro antibacterial activity, agar dilution MIC. Format: cell-based. To be noted: Citrobacter diversus K 82-84. Here is the method: as §1
The subject of a further experiment is Serratia marcescens. The experiment can be described thus: in vitro antibacterial activity, agar dilution MIC. Format: cell-based. On the procedure:
as §1

The subject of another experiment is Morganella morganii. Kind of experiment: in vitro antibacterial activity, agar dilution MIC. To be noted: Morganella morganii IO 83-18. Format: cell-based. On the procedure:
as §1

For another experiment, the system named is Enterobacter cloacae. The experiment can be described thus: in vitro antibacterial activity, agar dilution MIC. Format: cell-based. To be noted: Enterobacter cloacae CMC 84-4. Here is the method:
as §1

For the next experiment, the system named is Klebsiella pneumoniae. The experiment can be described thus: in vitro antibacterial activity, agar dilution MIC. Format: cell-based. On the procedure:
as §1

Consider `N.N.[Cl][Pt][Cl]` [Cisplatin, reference compound], for which the “Median Survival” value in experiment [1] (dose 0.25 mg/kg) worked out at 45 days; in [1] (dose 0.5 mg/kg), 44.5 days; in experiment [1] (dose 1 mg/kg), 30 days. In addition, the “T/C x 100” value worked out at 158% in experiment [1] (dose 0.25 mg/kg), 156% in [1] (dose 0.5 mg/kg) and 105% in experiment [1] (dose 1 mg/kg).

For the compound `CCN[C@H]1CO[C@@H](O[C@H]2[C@H](O[C@H]3C#CC=CC#C[C@@]4(O)CC(=O)C(NC(=O)OC)=C3/C4=C\CSSSC)O[C@H](C)[C@@H](NO[C@H]3C[C@H](O)[C@H](SC(=O)c4c(C)c(I)c(O[C@@H]5O[C@@H](C)[C@H](O)[C@@H](OC)[C@H]5O)c(OC)c4OC)[C@@H](C)O3)[C@@H]2O)C[C@@H]1OC` (stereo in doubt) [LL-E33288γ1-I], the “Minimal Inhibitory Concentration” value was determined as 0.12 µg/mL in the experiment on Acinetobacter sp. (Acinetobacter sp. CMC 83-89); 0.06 µg/mL with Acinetobacter sp. (Acinetobacter sp. IO 83-49); 0.12 µg/mL with Citrobacter freundii; 0.25 µg/mL with Escherichia coli (Escherichia coli ATCC 25922); 0.25 µg/mL in the experiment with Escherichia coli (Escherichia coli CMC 84-11, about 18 hours, 35°C); 0.25 µg/mL in the experiment with Escherichia coli (Escherichia coli No. 311-(MP)). Besides, the “Minimal Inhibitory Concentration” value is 0.50 µg/mL in the experiment on Enterobacter aerogenes; 0.25 µg/mL in the experiment with Providencia stuartii; 0.25 µg/mL in the experiment with Citrobacter diversus; 0.25 µg/mL in the experiment with Serratia marcescens (Serratia marcescens CMC 83-27); 0.12 µg/mL with Serratia marcescens (Serratia marcescens F35 (MP)); 0.25 µg/mL with Morganella morganii. Further, the “Minimal Inhibitory Concentration” value is 0.50 µg/mL in the experiment with Enterobacter cloacae, 0.25 µg/mL in the experiment on Klebsiella pneumoniae (Klebsiella pneumoniae AD (MP)) and 0.25 µg/mL in the experiment with Klebsiella pneumoniae (Klebsiella pneumoniae CMC 84-5).
